Results published in patent US7960563B2, “Indazoles used to treat estrogen receptor beta mediated disorders” (Glaxo Group Limited, priority 2007, dated 2011).

Columns and labels:
[1] = molecular target: T1, ERbeta protein (Homo sapiens, UniProt Q92731); assay: ER beta FP binding assay; settings: 6 nM ERbeta protein, 1.5 nM ER FP ligand (Fluormone EL Red), 3 hours at room temperature; read-out: pIC50 in the ER beta FP binding assay (converted)
T1 construct: […]; His6 (leader […]) (N)
Protocol: (§1) Assay Buffer (AB) (50 mM MOPES pH 7.5, 50 mM NaF, 2.5 mM CHAPs), in deionized water, 5 mM 1,4 dithiothreitol (DTT) added on day of the experiment. The appropriate amount of AB was placed in a plastic tube, adding solid DTT before the assay was run. AB with DTT was distributed to plastic tubes. We have found use of plastic to be important vs glass. A final concentration of 6 nM ERbeta protein was added to the tube followed by gentle inversion. A final concentration of 1.5 nM ER FP ligand (Fluormone™ EL Red 200 nM in 20 mM Tris, 90% Methanol purchased from Invitrogen catalogue no P3030) was added to the same tube followed by gentle inversion. This was allowed to sit for 5-10 minutes before adding it to the 384 assay plate. Similar protocol was used for ERalpha with a final concentration of 4 nM ERalpha and 1.5 nM ER FP ligand.
(§2) 384 plates containing test compounds dissolved in 100% DMSO at 1 mM were serially diluted (1:3) by a Beckman FX. Serial diluted test compounds were added, […], to the assay plates with a maximum final concentration of 10 uM. Once the assay plates were ready, 10 uL of the above reagents were added to the appropriate set of plates with the Thermo combi. These plates were then sealed and place at room temperature for 3 hours.
The plates were then placed on the Molecular Devices Analyst and counted (excitation 535 nm, emission 590 nm with a 561 Dichroic mirror). Data was normalized to control then fitted to a non-linear least squares algorithm (see below).
pIC50 Calculation y=a+((b−a)/(1+(10^x/10^c)^d) Results
The amino acid sequence of human ER beta used in this assay is […]

[2] = molecular target: T2, ERalpha (Homo sapiens, UniProt P03372); assay: ER alpha FP binding assay; settings: ER beta versus ER alpha, FP binding assays
T2 construct: […]; His6 (leader […]G) (N)
T2 sequence (P03372 with tags, fused parts or gaps): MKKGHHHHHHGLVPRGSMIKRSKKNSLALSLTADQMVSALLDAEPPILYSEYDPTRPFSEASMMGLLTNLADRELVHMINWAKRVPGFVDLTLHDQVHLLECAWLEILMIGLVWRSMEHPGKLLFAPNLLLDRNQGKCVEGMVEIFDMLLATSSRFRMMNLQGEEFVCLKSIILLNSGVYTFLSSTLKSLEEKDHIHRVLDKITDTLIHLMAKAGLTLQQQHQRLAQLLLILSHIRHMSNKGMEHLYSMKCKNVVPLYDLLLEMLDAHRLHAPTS
Protocol: as §1, §2
The plates were then placed on the Molecular Devices Analyst and counted (excitation 535 nm, emission 590 nm with a 561 Dichroic mirror). […]

T1 sequence (Q92731 with tags, fused parts or gaps): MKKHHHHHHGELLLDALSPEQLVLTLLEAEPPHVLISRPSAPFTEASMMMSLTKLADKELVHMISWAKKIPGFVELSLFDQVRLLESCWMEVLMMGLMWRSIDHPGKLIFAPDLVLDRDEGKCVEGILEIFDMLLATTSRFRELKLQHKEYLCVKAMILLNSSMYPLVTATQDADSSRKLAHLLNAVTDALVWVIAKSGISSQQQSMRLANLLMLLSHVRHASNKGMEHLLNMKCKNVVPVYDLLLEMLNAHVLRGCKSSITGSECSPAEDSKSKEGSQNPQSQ

Structure (SMILES)	IC50 [1] [nM]	selectivity versus ER alpha [2] [fold]
N#Cc1cc(O)c2cnn(-c3ccc(O)c(F)c3)c2c1 [Example 3, 1-(3-Fluoro-4-hydroxyphenyl)-4-hydroxy-1H-indazole-6-carbonitrile]	< 100	–
Oc1ccc(-n2ncc3c(O)cc(F)cc32)cc1F [Example 4, 6-Fluoro-1-(3-fluoro-4-hydroxyphenyl)-1H-indazol-4-ol]	< 100	–
C=Cc1cc(O)c2cnn(-c3ccc(O)c(F)c3)c2c1 [Example 6, 6-Ethenyl-1-(3-fluoro-4-hydroxyphenyl)-1H-indazol-4-ol]	< 100	–
CCc1cc(O)c2cnn(-c3ccc(O)c(F)c3)c2c1 [Example 7, 6-Ethyl-1-(3-fluoro-4-hydroxyphenyl)-1H-indazol-4-ol]	< 100	–
Oc1ccc(-n2ncc3c(O)cc(Br)cc32)cc1F [Example 5, 6-Bromo-1-(3-fluoro-4-hydroxyphenyl)-1H-indazol-4-ol]	< 100	–
Oc1ccc(-n2ncc3c(O)cccc32)cc1F [Example 1, 1-(3-Fluoro-4-hydroxyphenyl)-1H-indazol-4-ol]	< 100	> 10

Continued, in another order:

IC50 [1] [nM]	Structure (SMILES)	selectivity versus ER alpha [2] [fold]
< 100	Oc1ccc(-n2ncc3c(O)ccc(F)c32)cc1F [Example 13, 7-Fluoro-1-(3-fluoro-4-hydroxyphenyl)-1H-indazol-4-ol]	–
< 100	Oc1ccc(-n2ncc3c(O)c(F)ccc32)cc1F [Example 10, 5-Fluoro-1-(3-fluoro-4-hydroxyphenyl)-1H-indazol-4-ol]	–
< 100	Oc1ccc(-n2ncc3c(O)c(Br)ccc32)cc1F [Example 11, 5-Bromo-1-(3-fluoro-4-hydroxyphenyl)-1H-indazol-4-ol]	–
< 100	Oc1ccc(-n2ncc3c(O)ccc(Cl)c32)cc1F [Example 14, 7-Chloro-1-(3-fluoro-4-hydroxyphenyl)-1H-indazol-4-ol]	–
< 100	Oc1ccc(-n2ncc3c(O)cccc32)cc1Cl [Example 17, 1-(3-Chloro-4-hydroxyphenyl)-1H-indazol-4-ol]	–
< 100	Oc1ccc(-n2ncc3c(O)cc(Cl)cc32)cc1F [Example 8, 6-Chloro-1-(3-fluoro-4-hydroxyphenyl)-1H-indazol-4-ol]	–
< 100	Cc1cc(O)c2cnn(-c3ccc(O)c(F)c3)c2c1 [Example 9, 1-(3-Fluoro-4-hydroxyphenyl)-6-methyl-1H-indazol-4-ol]	–
